Data taken from patent US9617310B2 (priority 2013, dated 2017).

Columns and labels:
NS3 genotype 1b protease = target: T1, NS3 genotype 1b protease (Hepatitis C virus genotype 1b, UniProt Q9WMX2, E1202G); assay: Ki determination, NS3 protease genotype 1b (fluorogenic depsipeptide substrate); format: biochemical; settings: NS3 protease domain genotype 1b, NS4A peptide
T1 construct: Purified NS3 protease domain (amino acids 1-181) of the genotype 1b and 3a virus were generated as above; K3 hexahistidine tag (N); rTEV protease cleavage site (N); made in house; host or cells: E. coli BL21AI
T1 sequence (Q9WMX2 1027-1207 E1202G, other chains not shown): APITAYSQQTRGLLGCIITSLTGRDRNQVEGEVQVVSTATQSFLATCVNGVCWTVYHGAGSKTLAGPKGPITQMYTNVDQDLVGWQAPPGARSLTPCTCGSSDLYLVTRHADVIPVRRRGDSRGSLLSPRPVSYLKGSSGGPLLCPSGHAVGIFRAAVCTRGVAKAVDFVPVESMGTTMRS
Text: Ki Determination for Genotypes 1b and 3a NS3 Protease.
Purified NS3 protease domain (amino acids 1-181) of the genotype 1b and 3a virus were generated as above. The internally quenched fluorogenic depsipeptide substrate Ac-DED(Edans)-EEAbuψ[COO]ASK(Dabcyl)-NH2 and a synthetic peptide containing the hydrophobic core residues of the NS4A protein cofactor ([…]; NS4A peptide) were obtained from Anaspec, Inc. (San Jose, Calif.). Other chemicals and biochemicals were of reagent grade or better and were purchased from standard suppliers.
Reactions were run at room temperature in buffer consisting of 50 mM HEPES, 40% glycerol, 0.05% Triton X-100, 10 mM DTT, and 10% DMSO. The final assay solutions contained 50 pM NS3 genotype 1b protease or 200 pM genotype 3a protease, 20 μM NS4A peptide, and 4 μM substrate (genotype 1b) or 2 μM substrate (genotype 3a). Inhibitor concentrations varied from 100 nM to 5 pM in 3-fold dilutions, and no-inhibitor controls were included.
Compound dilutions were made in DMSO at 20× final concentration. Reaction mixtures were prepared in 96-well assay plates. A solution of enzyme and NS4A peptide in assay buffer (25 μL volume with both reagents at 4× final concentration) was mixed with 45 μL assay buffer and 5 μL of either inhibitor or DMSO, and pre-incubated at room temperature for 1 hour. The reaction was started by addition of 25 μL substrate solution at 4× final concentration. Plates were mixed vigorously for 5-10 seconds and reactions were allowed to proceed for 90 minutes. Fluorescence was measured every 30 s between 90 and 120 minutes reaction time using a Tecan InfiniTe M1000 or PerkinElmer Envision multimode plate reader with an excitation wavelength of 340 nm and an emission wavelength of 490 nm.
Rates were calculated from the progress curves at steady state, in the time frame of 90-120 minutes after addition of substrate. To determine the Ki, rates were plotted as a function of inhibitor concentration, and the data were fit with equation 1 (Morrison, J. F., Biochimica et Biophysica Acta 1969, 185, 269-286) to calculate Ki^app using GraphPad Prism 5. Active fraction of enzyme was determined by active site titration with known potent inhibitors. Ki was calculated from Ki^app/(1+[[S]/Km]).

[1] = tested on: genotype 1b stable HCV replicon (Con1) in Huh-7-derived cells; assay: Stable subgenomic HCV replicon, genotype 1b, Renilla luciferase; format: cell-based; settings: Hepatitis C virus, stable replicon genotype 1b, 72 h, read-out: EC50 1B RLUC
Description: (§1) Antiviral potency (EC50) was determined in both stable subgenomic HCV replicon cell lines and transient-transfected HCV replicon cells. The term half maximal effective concentration (EC50) refers to the concentration of a drug which induces a response halfway between the baseline and maximum after the exposure time specified below.
(§2) Stable subgenomic HCV replicons for genotype 1a, 1b, 2a, 3a, and 4a were established in Huh-7-derived cells as described by Lohmann et al (Lohmann V, Korner F, Koch J, et al Replication of subgenomic hepatitis C virus RNAs in a hepatoma cell line. Science 1999; 285:119-3). Each stable cell line contains a bicistronic HCV replicon that encodes a humanized Renilla luciferase (hRLuc) reporter gene fused to a selectable neomycin-resistance gene, followed by an EMCV IRES and the NS3-NS5B coding region of HCV. […] Luciferase activity was measured as a marker for intracellular HCV replication levels.
(§3) The genotype 1a stable replicon was derived from the H77 HCV strain and contained adaptive mutations P1496L and S2204I. The genotype 1b stable replicon was derived from the Con1 HCV strain and contained adaptive mutations E1202G, T1280I, and K1846T. […] The genotype 3a stable replicon was derived from the S52 HCV strain and contained adaptive mutations P1121 L, A1198T and S2210I (equivalent to S2204I in genotype 1). The genotype 4a stable replicon was derived from the ED43 HCV strain and contained adaptive mutations Q1691R and S2204I. All replicon cell lines were propagated in Huh-7-derived cells and maintained in Dulbecco's modified Eagle's Medium (DMEM) supplemented with 10% fetal bovine serum (FBS) and 0.5 mg/ml G418.
(§4) To perform EC50 assays, cells from each HCV replicon were dispensed into 384-well plates. Compounds were dissolved in DMSO at a concentration of 10 mM and diluted in DMSO using an automated pipetting instrument. Three-fold serially diluted compounds were directly added to the cells using an automated instrument. DMSO was used as a negative (solvent; no inhibition) control, and a combination of three HCV inhibitors including a protease inhibitor; an NS5A inhibitor and a nucleoside inhibitor was used at concentrations >100×EC50 as a positive control (100% inhibition). Seventy-two hours later, cells were lysed and Renilla luciferase activity were quantified as recommended by the manufacturer (Promega-Madison, Wis.). Non-linear regression was performed to calculate […], values.

[2] = tested on: genotype 2a stable HCV replicon (JFH-1) in Huh-7-derived cells; assay: Stable subgenomic HCV replicon, genotype 2a, Renilla luciferase; format: cell-based; settings: Hepatitis C virus, stable replicon genotype 2a, 72 h, read-out: EC50 2A RLUC
Description: as §1, §2, §3, §4

[3] = tested on: genotype 3a stable HCV replicon (S52) in Huh-7-derived cells; assay: Stable subgenomic HCV replicon, genotype 3a, Renilla luciferase; format: cell-based; settings: Hepatitis C virus, 72 h, read-out: EC50 3A RLUC
Description: as §1, §2, §3, §4

[4] = tested on: genotype 4a stable HCV replicon (ED43) in Huh-7-derived cells; assay: Stable subgenomic HCV replicon, genotype 4a, Renilla luciferase; format: cell-based; settings: Hepatitis C virus, 72 h, read-out: EC50 4A RLUC
Description: as §1, §2, §3, §4

[5] = tested on: genotype 3a transient HCV replicon (S52) in Huh-7-derived cells; assay: Transient-transfected HCV replicon, genotype 3a wild type; format: cell-based; settings: Hepatitis C virus; transient-transfected replicon genotype 3a wild type, 72 h; read-out: EC50 3A WT
[6] = tested on: genotype 1a (H77) wild-type transient HCV replicon in Huh-7-derived cells; assay: Transient-transfected HCV replicon, genotype 1a wild type; format: cell-based; settings: Hepatitis C virus; transient-transfected replicon genotype 1a wild type, 72 h; read-out: EC50 1A WT
[7] = tested on: NS3/4a protease inhibitor resistant variant R155K in genotype 1a transient HCV replicon; assay: Transient-transfected HCV replicon, genotype 1a R155K; format: cell-based; settings: Hepatitis C virus, 72 h, read-out: EC50 1A R155K
[8] = tested on: NS3/4a protease inhibitor resistant variant D168A in genotype 1b transient HCV replicon; assay: Transient-transfected HCV replicon, genotype 1b D168A; format: cell-based; settings: Hepatitis C virus, 72 h, read-out: EC50 1B D168A

Row | SMILES | Ki (NS3 genotype 1b protease) | EC50 [1] | EC50 [2] | EC50 [3] | EC50 [4] | EC50 [5] | EC50 [6] | EC50 [7] | EC50 [8]
1 | COc1ccc2nc3c(nc2c1)O[C@@H]1C[C@@H](C(=O)N[C@]2(C(=O)NS(=O)(=O)C4CC4)C[C@H]2C(F)F)N(C1)C(=O)[C@H](C(C)(C)C)NC(=O)O[C@@H]1C[C@@H]2C[C@@H]2[C@H]1CCCCC3(F)F (racemic) [Example 9, (1aS,2aR,6S,9S,11R,23aR,23bS)-6-tert-butyl-N-[(1R,2R)-1-[(cyclopropylsulfonyl)carbamoyl]-2-(difluoromethyl)cyclopropyl]-19,19-difluoro-15-methoxy-4,7-dioxo-1a,2,2a,4,5,6,7,10,11,19,20,21,22,23,23a,23b-hexadecahydro-1H,9H-8,11-methanocyclopropa[4′,5′]cyclopenta[1′,2′:18,19][1,10,3,6]dioxadiazacyclononadecino[11,12-b]quinoxaline-9-carboxamide] | 0.02 nM | 1.5 nM | 2.3 nM | 6.6 nM | 1.4 nM | 2.5 nM | 1.3 nM | 1.1 nM | 1.1 nM
2 | CC(C)(C)[C@@H]1NC(=O)O[C@@H]2C[C@@H]3C[C@@H]3[C@H]2CCCCC(F)(F)c2nc3cc(F)c(F)cc3nc2O[C@@H]2C[C@@H](C(=O)N[C@]3(C(=O)NS(=O)(=O)C4CC4)C[C@H]3C(F)F)N(C2)C1=O (racemic) [Example 15, (1aS,2aR,6S,9S,11R,23aR,23bS)-6-tert-butyl-N-[(1R,2R)-1-[(cyclopropylsulfonyl)carbamoyl]-2-(difluoromethyl)cyclopropyl]-15,16,19,19-tetrafluoro-4,7-dioxo-1a,2,2a,4,5,6,7,10,11,19,20,21,22,23,23a,23b-hexadecahydro-1H,9H-8,11-methanocyclopropa[4′,5′]cyclopenta[1′,2′:18,19][1,10,3,6]dioxadiazacyclononadecino[11,12-b]quinoxaline-9-carboxamide] | 0.03 nM | 3.4 nM | 3.3 nM | 30 nM | 2.6 nM | 11 nM | 1.6 nM | 1.2 nM | 4.7 nM
3 | COc1ccc2nc3c(nc2c1)O[C@@H]1C[C@@H](C(=O)N[C@]2(C(=O)NS(=O)(=O)C4CC4)C[C@H]2C(F)F)N(C1)C(=O)[C@H](C(C)(C)C)NC(=O)O[C@@H]1C[C@@H]2C[C@@H]2[C@H]1CCCCC3 [Example 1, (1aS,2aR,6S,9S,11R,23aR,23bS)-6-tert-butyl-N-[(1R,2R)-1-[(cyclopropylsulfonyl)carbamoyl]-2-(difluoromethyl)cyclopropyl]-15-methoxy-4,7-dioxo-1a,2,2a,4,5,6,7,10,11,19,20,21,22,23,23a,23b-hexadecahydro-1H,9H-8,11-methanocyclopropa[4′,5′]cyclopenta[1′,2′:18,19][1,10,3,6]dioxadiazacyclononadecino[11,12-b]quinoxaline-9-carboxamide] | 0.02 nM | 0.99 nM | 2.5 nM | 23 nM | 1 nM | 7.1 nM | 1 nM | 1.5 nM | 4.6 nM
4 | COc1ccc2nc3c(nc2c1)O[C@@H]1C[C@@H](C(=O)N[C@]2(C(=O)NS(=O)(=O)C4(C)CC4)C[C@H]2C(F)F)N(C1)C(=O)[C@H](C(C)(C)C)NC(=O)O[C@@H]1C[C@@H]2C[C@@H]2[C@H]1CCCCC3 [Example 2, (1aS,2aR,6S,9S,11R,23aR,23bS)-6-tert-butyl-N-[(1R,2R)-2-(difluoromethyl)-1-{[(1-methylcyclopropyl)sulfonyl]carbamoyl}cyclopropyl]-15-methoxy-4,7-dioxo-1a,2,2a,4,5,6,7,10,11,19,20,21,22,23,23a,23b-hexadecahydro-1H,9H-8,11-methanocyclopropa[4′,5′]cyclopenta[1′,2′18,19][1,10,3,6]dioxadiazacyclononadecino[11,12-b]quinoxaline-9-carboxamide] | 0.02 nM | 1 nM | 1.82 nM | 17 nM | 1.2 nM | 5.1 nM | 1.1 nM | 1.4 nM | 3.2 nM
5 | COc1ccc2nc3c(nc2c1)O[C@@H]1C[C@@H](C(=O)N[C@]2(C(=O)NS(=O)(=O)C4CC4)C[C@H]2CC(F)F)N(C1)C(=O)[C@H](C(C)(C)C)NC(=O)O[C@@H]1C[C@@H]2C[C@@H]2[C@H]1CCCCC3 [Example 3, (1aS,2aR,6S,9S,11R,23aR,23bS)-6-tert-butyl-N-[(1R,2S)-1-[(cyclopropylsulfonyl)carbamoyl]-2-(2,2-difluoroethyl)cyclopropyl]-15-methoxy-4,7-dioxo-1a,2,2a,4,5,6,7,10,11,19,20,21,22,23,23a,23b-hexadecahydro-1H,9H-8,11-methanocyclopropa[4′,5′]cyclopenta[1′,2′:18,19][1,10,3,6]dioxadiazacyclononadecino[11,12-b]quinoxaline-9-carboxamide] | 0.03 nM | 3.2 nM | 15 nM | 194 nM | 3.4 nM | 67 nM | 5.1 nM | 11 nM | 50 nM
